Measurements from paper PMC11203424, “Comparative Analysis of Orthosteric and Allosteric GLP-1R Agonists’ Effects on Insulin Secretion from Healthy, Diabetic, and Recovered INS-1E Pancreatic Beta Cells” (International Journal of Molecular Sciences, 2024).

What was measured:
[1] = target: T1, GLP-1R (Rattus norvegicus, UniProt P32301); test: Glucose-stimulated insulin secretion (GSIS), insulin ELISA, INS-1E cells; type: cell-based; conditions: 10 μM, 15 mM glucose, n = 3
T1 construct: Rat INS-1E cells were cultured in RPMI-1640 containing 11 mM glucose; endogenous in cells; host or cells: INS-1E rat pancreatic beta cell line (healthy, diabetic and recovered states)
T1 sequence (P32301 22-463): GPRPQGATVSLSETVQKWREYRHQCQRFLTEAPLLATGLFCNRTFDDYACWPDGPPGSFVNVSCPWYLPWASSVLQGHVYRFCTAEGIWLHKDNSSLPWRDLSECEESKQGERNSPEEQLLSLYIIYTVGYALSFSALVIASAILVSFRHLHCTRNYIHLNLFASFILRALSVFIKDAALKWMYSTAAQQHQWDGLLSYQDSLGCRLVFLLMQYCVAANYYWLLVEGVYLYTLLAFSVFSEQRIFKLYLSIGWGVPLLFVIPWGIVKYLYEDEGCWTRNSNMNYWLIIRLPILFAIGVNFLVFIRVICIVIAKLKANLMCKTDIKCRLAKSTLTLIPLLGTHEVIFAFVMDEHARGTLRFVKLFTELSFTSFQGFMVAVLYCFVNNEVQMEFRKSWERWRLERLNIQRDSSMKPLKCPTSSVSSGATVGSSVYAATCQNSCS
Protocol: The cells were maintained in sterile 10 cm^2 tissue culture Petri dishes (Greiner Bio-one, Stonehouse, UK) by changing the FSM every 3–4 days and sub-culturing when they reached 100% confluency. Diabetic and recovered INS-1E cells were generated using a previously described method with some changes [41]. To produce ‘diabetic’ INS-1E cells, when healthy INS-1E cells reached >80% confluency, they were maintained in FSM containing high glucose (40 mM) for 4 weeks by changing the medium with high glucose every 3–4 days. To produce ‘recovered’ cells, the healthy cells were cultured initially in FSM containing 40 mM glucose (diabetic condition) for 4 weeks and then in FSM containing 11 mM glucose for 4 weeks. […] Unless otherwise specified, all incubations of the cells in the following assays were carried out in a humid incubator at 37 °C and 5% CO2, and all of the ELISAs were carried out at room temperature (RT).
For the ELISA, the wells of 96-well plate inserts were coated with 50 μL of 3 μg/mL captured antibody (Novus Biologicals, Abingdon, UK) diluted in PBS for 2 h at 37 °C and then washed four times with PBST. The antibody-coated wells were then blocked for 1 h with 150 μL of blocking buffer (5% fish gelatin made in PBST). Samples of 50 μL of samples were added to the capture antibody-coated wells in duplicate and incubated overnight at 4 °C. The wells were then washed five times with PBST and incubated with 50 μL of HRP-conjugated detection antibody (Abcam; diluted 1/10,000 in dilution buffer) for 2 h. The wells were washed again five times with PBST and incubated with 50 μL of Ultra TMB substrate (Thermo Fisher Scientific, Loughborough, UK) for 5 min. The reaction was stopped by adding an equal volume of 2M sulfuric acid, then its optical density was read at 450 nm (OD450) using a plate reader. Using known insulin standards (Abcam, Cambridge, UK), the insulin concentrations of samples were determined.

[2] = target: T1, GLP-1R; test: Glucose-stimulated intracellular cAMP production (GSICP), cAMP ELISA, INS-1E cells; type: cell-based; conditions: diabetic INS-1E; 1 and 2 h, in some instances; 10 μM; n = 3
Protocol: The cells were maintained in sterile 10 cm^2 tissue culture Petri dishes (Greiner Bio-one, Stonehouse, UK) by changing the FSM every 3–4 days and sub-culturing when they reached 100% confluency. Diabetic and recovered INS-1E cells were generated using a previously described method with some changes [41]. To produce ‘diabetic’ INS-1E cells, when healthy INS-1E cells reached >80% confluency, they were maintained in FSM containing high glucose (40 mM) for 4 weeks by changing the medium with high glucose every 3–4 days. To produce ‘recovered’ cells, the healthy cells were cultured initially in FSM containing 40 mM glucose (diabetic condition) for 4 weeks and then in FSM containing 11 mM glucose for 4 weeks. […]
The intracellular cAMP contents of the INS-1E cells during the treatments was measured using a cAMP ELISA. […]
For the ELISA, an anti-rabbit antibody (Genscript, Oxford, UK) diluted to 10 μg/mL in 100 mM NaHCO3 buffer (pH 9.6) was used to coat the wells (50 μL per well) of a 96-well plate overnight at 4 °C. […] The reaction was stopped after 5 min with 50 μL of 2M sulfuric acid, then its optical density was read at 450 nm (OD450) using a plate reader. Using known cAMP standards, the cAMP contents of the samples were determined.

[3] = tested on: human islets; set-up: method as in PMID 20823098; conditions: human islets isolated from a donor with T2D; cited from earlier work
[4] = tested on: INS-1E cells; test: Intracellular cAMP (GSICP) with cAMP-elevating chemicals, cAMP ELISA; type: cell-based, Rat; conditions: IBMX (10 μM), forskolin (0.5 mM), 15 mM glucose, n = 3; for intracellular cAMP (GSICP) versus allosteric agonists: up to 12 h, p > 0.05
Protocol: Figure 9 Assessing the time-dependent effects of GLP-1R agonists and cAMP-elevating chemicals (IBMX and forskolin) on GSIS and GSICP in healthy, diabetic, and recovered INS-1E cells. […] Samples were analyzed using insulin (a) and cAMP (b) ELISAs. Data expressed as mean ± SEM, n = 3. […] No symbol on the bars indicates non-significance (p > 0.05) in comparison to the no agonist control at that time point. […] The cells were maintained in sterile 10 cm^2 tissue culture Petri dishes (Greiner Bio-one, Stonehouse, UK) by changing the FSM every 3–4 days and sub-culturing when they reached 100% confluency. Diabetic and recovered INS-1E cells were generated using a previously described method with some changes. […] To produce ‘recovered’ cells, the healthy cells were cultured initially in FSM containing 40 mM glucose (diabetic condition) for 4 weeks and then in FSM containing 11 mM glucose for 4 weeks. For all the following assays, INS-1E cells (100,000 cells/well) were plated in a 96-well plate in FSM and incubated for 24 h in a humid incubator at 37 °C and 5% CO2 for the cells to attach and reach >80% confluency. Unless otherwise specified, all incubations of the cells in the following assays were carried out in a humid incubator at 37 °C and 5% CO2, and all of the ELISAs were carried out at room temperature (RT). The intracellular cAMP contents of the INS-1E cells during the treatments was measured using a cAMP ELISA. INS-1E cells (100,000 cells/well) were plated in a 96-well plate in FSM. After 24 h, the cells were pre-incubated with KRH buffer containing 0.5% fish gelatin for 1 h, washed twice with KRH and then incubated for 1 h with KRH to reduce basal cAMP levels. The cells were incubated in the KRH buffer containing various concentrations of glucose without or with different concentrations of GLP-1R agonists for the desired time. The cells were then lysed in 150 μL of 0.1M HCl by incubating at RT for 20 min, and then the cell lysates were centrifuged at 16,000× g for 10 min. A total of 12 μL of the supernatant was neutralized with 6 μL of 0.2M NaOH, diluted to 120 μL with TBS containing 0.05% Tween-20 (TBST), and used in the cAMP ELISA. For the ELISA, an anti-rabbit antibody (Genscript, Oxford, UK) diluted to 10 μg/mL in 100 mM NaHCO3 buffer (pH 9.6) was used to coat the wells (50 μL per well) of a 96-well plate overnight at 4 °C. The coated wells were washed twice with TBST and blocked with blocking buffer (TBST containing 0.5% fatty acid-free BSA) for 1 h. Samples of 50 μL were then added individually in duplicate to the antibody-coated wells. […] The reaction was stopped after 5 min with 50 μL of 2M sulfuric acid, then its optical density was read at 450 nm (OD450) using a plate reader. Using known cAMP standards, the cAMP contents of the samples were determined.

[5] = tested on: INS-1E cells; test: GSIS with cAMP-elevating chemicals, insulin ELISA; type: cell-based, Rat; conditions: IBMX (10 μM), forskolin (0.5 mM), 15 mM glucose, n = 3; for augmentation of GSIS versus allosteric agonists: up to 12 h, p > 0.05
Protocol: Figure 9 Assessing the time-dependent effects of GLP-1R agonists and cAMP-elevating chemicals (IBMX and forskolin) on GSIS and GSICP in healthy, diabetic, and recovered INS-1E cells. […] Samples were analyzed using insulin (a) and cAMP (b) ELISAs. Data expressed as mean ± SEM, n = 3. […] No symbol on the bars indicates non-significance (p > 0.05) in comparison to the no agonist control at that time point. […] The cells were maintained in sterile 10 cm^2 tissue culture Petri dishes (Greiner Bio-one, Stonehouse, UK) by changing the FSM every 3–4 days and sub-culturing when they reached 100% confluency. Diabetic and recovered INS-1E cells were generated using a previously described method with some changes. […] To produce ‘recovered’ cells, the healthy cells were cultured initially in FSM containing 40 mM glucose (diabetic condition) for 4 weeks and then in FSM containing 11 mM glucose for 4 weeks. For all the following assays, INS-1E cells (100,000 cells/well) were plated in a 96-well plate in FSM and incubated for 24 h in a humid incubator at 37 °C and 5% CO2 for the cells to attach and reach >80% confluency. Unless otherwise specified, all incubations of the cells in the following assays were carried out in a humid incubator at 37 °C and 5% CO2, and all of the ELISAs were carried out at room temperature (RT). The insulin secreted by INS-1E cells during the treatments was measured using an insulin ELISA. INS-1E cells (100,000 cells/well) were plated in a 96-well plate in FSM. […] The cells were then incubated in the KRH buffer containing the specified concentration of glucose without or with the specified concentration of GLP-1R agonist(s) for the desired time. After cessation of the cell treatments, the media were clarified via centrifugation at 22,000× g for 5 min and then diluted 1 in 25 in dilution buffer (0.5% fish gelatin made in PBST [PBS with 0.05% tween-20]) and used for the insulin ELISA. The sample preparation for measuring the intracellular insulin contents of the INS-1E cells via the insulin ELISA was as follows. After cessation of the treatments, the cells were lysed in 150 μL of 0.1 M HCl. The cell lysates were centrifuged at 22,000× g for 5 min, then the supernatant was diluted 1 in 1000 in dilution buffer to use as the samples for the insulin ELISA. For the ELISA, the wells of 96-well plate inserts were coated with 50 μL of 3 μg/mL captured antibody (Novus Biologicals, Abingdon, UK) diluted in PBS for 2 h at 37 °C and then washed four times with PBST. […] The reaction was stopped by adding an equal volume of 2M sulfuric acid, then its optical density was read at 450 nm (OD450) using a plate reader. Using known insulin standards (Abcam, Cambridge, UK), the insulin concentrations of samples were determined.

[6] = tested on: dipeptidyl peptidase (DPP)-IV; conditions: cited from earlier work
Description: Type 2 diabetes (T2D), which is a multifactorial metabolic disease that is largely characterized by impaired insulin secretion and action, has become a global pandemic in recent decades. Despite the availability of various treatments, T2D post-diagnosis complications such as cardiovascular disease (CVD) remain prevalent, and finding long-term stable treatment regimes for patients can be challenging. Therefore, novel therapeutic strategies, which alleviate the pathology associated with T2D more effectively than current treatments, are highly desirable. Th ...

[7] = tested on: GLP-1R; set-up: method as in PMID 27630114, doi:10.4172/2161-1459.1000138, PMID 27138453, PMID 27100083, PMID 25449603; conditions: cited from earlier work
Description: The activation of the Gαs subunit of heterotrimeric G-protein raises intracellular cAMP levels via adenylyl cyclase (AC) activation, whereas the activation of the Gαq subunit increases intracellular calcium (iCa^2+) levels and extracellular signal-regulated kinase (ERK) phosphorylation, which promotes GLP-1R internalization. The internalization of GLP-1R is associate ...

Compound | GSIS at 48 h, 72 h and 96 h ([1]; diabetic INS-1E) | GSIS at 48 h, 72 h and 96 h ([1]; healthy and recovered INS-1E) | time after which augmentation of GSICP was lost [4] | intracellular cAMP (GSICP) versus allosteric agonists [4] | time after which augmentation of GSIS was lost [5] | augmentation of GSIS versus allosteric agonists [5] | other results
CC(C)(C)Nc1nc2cc(Cl)c(Cl)cc2nc1S(C)(=O)=O [Compound 2, 6,7-dichloro-2-methylsulfonyl-3-N-tert-butylaminoquinoxaline] | significantly boosted GSIS | slightly increased GSIS |  |  |  |  | 
CC[S+]([O-])c1nc(-c2cccc(OCc3ccccc3)c2)cc(C(F)(F)F)n1 (centres unmarked) [Compound B, 4-(3-(benzyloxy)phenyl)-2-(ethylsulfinyl)-6-(trifluoromethyl)-pyramidine] | significantly boosted GSIS | slightly increased GSIS |  |  |  |  | GSICP, 8 mM glucose preincubation [2]: boosted GSCIP to a greater extent; insulin secretion [3]: near-normal levels
CC(C)Cn1c(=O)n(C)c(=O)c2[nH]cnc21 [IBMX, Isobutylmethylxanthine] |  |  | 12 h | raised intracellular cAMP levels | 12 h | augmented GSIS to similar levels | 
CCCCCCCCCCCCCCCC(=O)N[C@@H](CCC(=O)NCCCC[C@H](NC(=O)[C@H](C)NC(=O)[C@H](C)NC(=O)[C@H](CCC(N)=O)NC(=O)CNC(=O)[C@H](CCC(=O)O)NC(=O)[C@H](CC(C)C)NC(=O)[C@H](Cc1ccc(O)cc1)NC(=O)[C@H](CO)NC(=O)[C@H](CO)NC(=O)[C@@H](NC(=O)[C@H](CC(=O)O)NC(=O)[C@H](CO)NC(=O)[C@@H](NC(=O)[C@H](Cc1ccccc1)NC(=O)[C@@H](NC(=O)CNC(=O)[C@H](CCC(=O)O)NC(=O)[C@H](C)NC(=O)[C@@H](N)Cc1cnc[nH]1)[C@@H](C)O)[C@@H](C)O)C(C)C)C(=O)N[C@@H](CCC(=O)O)C(=O)N[C@@H](Cc1ccccc1)C(=O)N[C@H](C(=O)N[C@@H](C)C(=O)N[C@@H](Cc1c[nH]c2ccccc12)C(=O)N[C@@H](CC(C)C)C(=O)N[C@H](C(=O)N[C@@H](CCCNC(=N)N)C(=O)NCC(=O)N[C@@H](CCCNC(=N)N)C(=O)NCC(=O)O)C(C)C)[C@@H](C)CC)C(=O)O [Liraglutide] |  |  |  |  |  |  | resistance to DPP-IV [6]: resistant to breakdown by DPP-IV
C=C[C@@]1(C)CC(=O)[C@]2(O)[C@@]3(C)[C@@H](O)CCC(C)(C)[C@@H]3[C@H](O)[C@H](OC(C)=O)[C@@]2(C)O1 [forskolin] |  |  | 12 h | raised intracellular cAMP levels | 12 h | augmented GSIS to similar levels | 
GLP-1: hormone secreted into the circulation by intestinal L-cells in response to food intake |  |  |  |  |  |  | G-protein pathway activation via GLP-1R [7]: activation of both the Gαs and Gαq pathways; half-life [6]: short half-life
